Entries after “also recorded” stand apart in the source; their conditions may differ.
Experiments:
AAD-12 = target: T1, AAD-12 (Delftia acidovorans, UniProt P83309); assay: Degradation activities of AAD-12 on phenoxy acetic acid herbicides by spectrophotometry (A510); assay type: biochemical, Comamonas acidovorans
T1 construct: made in house; host or cells: E. coli BL21(DE3)
Description: As reported in literature (Fukomori and Flausinger, Purification and characterization of 2,4-dichlorophenoxyacetate/alpha-ketoglutarate dioxygenase Journal of Biological Chemistry (1993) 268(32): 24311-24317), the constructed expression vector pET15b-AAD12 was transformed into E. coli BL21(DE3) and induced by IPTG for expression. After cells were collected and lysed, Ni-NTA column was used for purification and the purity of the protein was analyzed by SDS-PAGE.
Since phenolic products were produced by AAD-12-substrate catalytic reaction, 4-aminoantipyrine and potassium ferricyanide could be used to develop color with the products in an alkaline environment to generate red products with absorption at 510 nm, and the relevant parameters were directly read with a microplate reader.

Arabidopsis thaliana = assay: Spray testing of T2 generation transgenic Arabidopsis thaliana; assay type: in vivo; settings: 100 g/ha foliage spray, 10 days after spraying
Text: The T2 generation seedlings of four representative transformants, pQY2309, pQY2310, pQY2311 and pQY2313, were selected for further spray testing. Four lines were randomly selected from the T2 generation generated by transformation of each vector, and respectively foliage-sprayed with 2,4-D (100 g/ha), MCPA (100 g/ha) and 2,4-DB sodium (100 g/ha) when Arabidopsis thaliana seeds germinated, transplanted and the seedlings grew to 5-7 leaf. Non-transgenic wild-type Col-0 served as a negative control. The level of resistance was assessed 10 days after spraying.

maize B104 = assay: Herbicide-resistance capacity testing of transgenic maize (spray); assay type: in vivo; settings: 4.48 kg/ha foliage spray, 14 days / 15 days
Text: 1. Vector construction: the overexpression vector was altered from pCambia3300, containing a Bar resistance gene that can be used as a selection marker for bialaphos (glufosinate). The AAD-like gene, QYD42, SEQ ID NO. 83, was linked to the pCambia3300 at the BamH I restriction site by seamless cloning to construct the transgenic vector pQY2329, of which the expression cassette consisted of a maize ubiquitin-1 promoter, the AAD gene and a Nos terminator, as shown in FIG. 7-1.
2. Genetic transformation of maizes: Maize transformation was carried out by the Agrobacterium-mediated immature embryo transformation method (Jones T, Lowe K, Hoerster G, et al. Maize Transformation Using the Morphogenic Genes Baby Boom and Wuschel2. Methods Mol Biol. 2019; 1864:81-93. Doi: 10.1007/978-1-4939-8778-8 6). The Agrobacterium (EHA105) comprising the pQY2329 overexpression vector was inoculated into YEP liquid medium (containing 25 mg/L Rifampicin and 50 mg/L Kanamycin), and shaking-cultured a t 28° C., 220 rmp/min overnight until the OD600 was about 1.0-1.5, then centrifuged at 6000 rmp/min for 10 min to collect the cells into a 50 ml centrifuge tube (sterilized). After discarding the supernatant, the cells were resuspended using MS infect culture medium (containing 68.5 g/L sucrose, 36 g/L glucose, pH 5.8) to OD550=0.8. […]

[1] = AAD-12 enzyme with substrate, chromogenic detection at 510 nm

T1 sequence (P83309 2-292, added parts left off): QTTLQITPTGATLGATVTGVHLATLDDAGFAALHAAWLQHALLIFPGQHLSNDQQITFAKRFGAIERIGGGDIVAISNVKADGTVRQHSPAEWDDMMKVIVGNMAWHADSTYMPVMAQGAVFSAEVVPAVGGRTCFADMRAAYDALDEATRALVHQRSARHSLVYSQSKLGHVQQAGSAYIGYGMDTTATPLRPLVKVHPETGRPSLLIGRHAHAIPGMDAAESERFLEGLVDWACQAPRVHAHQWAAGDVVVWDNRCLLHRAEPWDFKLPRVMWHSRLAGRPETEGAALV

## O=C(O)COc1ccc(Cl)cc1Cl [2,4-D, (2,4-dichlorophenoxy)acetic acid, reference compound]
AAD-12
  Degradation activity of expressed AAD-12 enzyme on the substrate: degradation activities
AAD-12; [1]
  A510 of reaction group, Reaction 1: 0.2865
  A510 of reaction group, Reaction 2: 0.2766
  A510 of reaction group, Reaction 3: 0.2652
AAD-12; reaction group versus blank group
  Increased A510: +0.130
Arabidopsis thaliana
  Effect of the herbicide spray on wild-type Col-0: all or almost all non-transgenic wild-type Arabidopsis thaliana died; also recorded: all die
Maize B104
  Effect of the herbicide spray on non-transgenic maize B104: apparent phytotoxicity, root nodules, reduced root system and easily-lodging plant; also recorded: stem bases of maize B104 are swollen

Source: patent US20240043859A1, “HERBICIDE-RESISTANT PROTEIN, AND GENE AND USE THEREOF” (QINGDAO KINGAGROOT CHEMICAL COMPOUND CO., LTD., priority 2020, published 2024)
